Assay results published in US20250162973A1, “METHODS OF SYNTHESIS AND USES OF AGRIMOL COMPOUNDS” (Versitech Limited, priority 2022, published 2025).

What was measured:
NCI-H460 cells = assay: Cell colony formation (clonogenic) assay; format: cell-based, human
Description: For the colony formation assay, cells were treated with indicated concentrations of AGB for 8 h, then AGB was then removed and 200 cells were trypsinized and seeded into a new 12-well cell culture plate containing 1.5 ml of complete cell growth medium. After cells were grown for 14 days, cells were then fixed with ethanol followed a staining by crystal violet (0.05%, w/v, in water) for 15 min. The cell colonies were captured under the microscope and the number of colonies was calculated by ImageJ (version 1.50i, NIH, USA, internet site imagej.nih.gov).

[1] = Safety in xenograft mice (body weight, H&E staining); format: in vivo
Description: In vivo anticancer efficacy of AGB was evaluated using the human tumor xenograft model, in which human cancer cells were inoculated into immune-deficiency mice. Briefly, twelve six-week-old (16-18 g) BALB/c nude mice were randomly divided into two groups and both received subcutaneous injection of NCI-H460 cells (2 million cells in 0.1 mL PBS) at its right flank of mice and tumor became palpable after three days of injection. Mice were received intravenous (i.v.) injections of AGB or vehicle control (10% DMSO and 0.05% Tween 80 in normal saline) every two days in two weeks. The length and width of tumor were measured by Vernier caliper and the body weight was monitored every two or three days. At the end of experiment, mice were sacrificed and decapitated. The liver, kidney, and tumor were collected and fixed in 4% formaldehyde for further haematoxylin and eosin (H&E) staining. All animal experiments in this project received human care and study protocols complied with the guidelines of the Laboratory Animal Services Centre of the University of Hong Kong. Tumor sizes and body weight were recorded before the drug injection every time and tumor volume (V) was calculated by the formula V=LW^2/2, where L is tumor length and W is tumor width. The relative tumor volume that normalized to day 0 was used to monitor the tumor growth. Data in each group was shown as mean±standard deviation.
The in vivo antitumor potential of AGB using the xenograft mouse model was assessed. Two different cancer cells (NCI-H460 and A549) were inoculated subcutaneously into the nude mice. Non-obese diabetic severe combined immunodeficient (NOD/SCID) mice were used for stem-like NCI-H460 cells. The mice were then treated by tail intravenous injection with vehicle or AGB (3 mg/kg). […] To further evaluate the safety of AGB, hematoxylin-eosin (H&E) staining of the kidney, liver, and tumor samples were performed (FIG. 1K). The necrotic area (circled by dashed line) in the tumor tissue from mice treated with AGB was much larger than that in vehicle group.

[2] = Serum biochemical examination in MTD test; format: in vivo; details: 12.8 mg/kg
Description: The MTD test in this study was done in collaboration with Tianjin Institute of Pharmaceutical Research (TIPR). […] A total of 80 mice were randomly assigned into four groups (10 male and 10 female mice in each group) in this study. Four groups included 16.0 mg/kg of AGB group, 12.8 mg/kg of AGB group, vehicle control group (10% DMSO+0.8% Tween-80 in normal saline), and the blank control group (normal saline).
Then, the body weights of surviving animals were measured on the 1st, 3rd, 7th and 14th days, respectively. At the end of experiment, the hematology, blood biochemistry, anatomical examination, and histopathology examination were performed in both vehicle control group and the MTD group (12.8 mg/kg). The data were presented as the mean±standard deviation.

[3] = tested on: ER stress in NCI-H460 cells; assay: ER stress (ER tracker staining, Western Blot of markers); format: cell-based, human
Text: The disruption of Golgi structure leads to impaired glycosylation processes, resulting in misfolded proteins which would accumulate to induce ER stress. The relationship between AGB and ER stress in cancer cells was examined. The morphology of ER was disrupted and the content was lessened using ER tracker staining (images not shown). In order to verify that NCI-H460 cells developed ER stress response when treated with AGB, the expression of two ER stress markers, Glucose-regulated protein (GRP) 78 (GRP78) and C/-EBP homologous protein (CHOP), was examined. GAPDH was used as a loading control. […] Generally, there are three sensors to initiate ER stress responses, including IRE1, PERK and ATF6. Upon the accumulation of unfolded proteins, BiP preferentially binds to the unfolded proteins, which results in the release of PERK, IRE1, and ATF6. Once released from BiP, PERK becomes activated and dimerized. Activated PERK phosphorylates eIF2α to suppress the overall […] of mRNAs.

Hsp60 client Mito-RFP = assay: Mito-RFP / EGFP fluorescence in transfected cells; format: cell-based

## CCCC(=O)c1c(O)c(Cc2c(O)c(Cc3c(O)c(C)c(OC)c(C(=O)CCC)c3O)c(O)c(C(=O)[C@@H](C)CC)c2O)c(O)c(C)c1OC [AGB, Agrimol B]
NCI-H460 cells; 8 h treatment, colonies counted after two weeks
  AGB concentration over which colonies numbers were significantly reduced: over 2.5 μM
NCI-H460 cells; clonogenicity assay
  concentration giving significant reduction of cell colony formation: around 4 μM
[1]; 3 mg/kg of AGB
  observable toxicity (body weight of mice): did not show any observable toxicity
[1]; after treatment with AGB
  liver and kidney histology (H&E): did not show any obvious change
[1]; mice treated with AGB
  necrotic area in the tumor tissue vs vehicle group (H&E): much larger
[2]; 14 days after administration
  serum biochemical abnormalities vs vehicle control: no obvious abnormalities
[2]; day 14
  ALB: 17.73 ± 5.07 g/L
  ALP: 153.67 ± 37.63 U/L
  ALT: 26.09 ± 2.23 U/L
  AST: 85.74 ± 15.96 U/L
  BUN: 4.58 ± 2.24 mmol/L
  CK: 953.09 ± 480.50 U/L
  CREA: 34.11 ± 3.61 µmol/L
  GGT: 0.07 ± 0.08 U/L
  GLU: 9.10 ± 3.07 mmol/L
  LDH: 403.54 ± 92.68 U/L
  T.BIL: 1.75 ± 0.45 µmol/L
  T.CHO: 3.68 ± 1.60 mmol/L
  TG: 1.41 ± 0.59 mmol/L
  TP: 45.93 ± 13.71 g/L
[3]; AGB-treated NCI-H460
  phosphorylation status of eIF2α: eIF2α was phosphorylated
[3]; ER tracker staining
  morphology of ER: disrupted
[3]; Western Blot, time-dependent
  expression of ER stress markers GRP78 and CHOP: significantly increased
Hsp60 client Mito-RFP; cells transfected with EGFP-expressing construct
  EGFP fluorescence: did not show changes in fluorescence
Hsp60 client Mito-RFP; cells transfected with Mito-RFP
  mitochondrial fluorescence (Mito-RFP) vs vehicle: significant reduction of mitochondrial fluorescence
